Where two headings read alike, the source gives them in different places. Blank lines part the entries; values can stand above or below the compound they belong to.
Assays:
Type IV PDE = assay: PDE IV inhibition: hydrolysis of [3H]-cyclic AMP by isolated Type IV PDE; format: biochemical, bovine
Method in brief: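 Type IV PDE was partially purified from bovine tracheal smooth muscle by DEAE ion-exchange chromatography. Activity was measured as [3H]-cAMP hydrolysis at 0.2 μM cAMP (≈Km), with protein adjusted so that ≤15% of substrate was hydrolysed. Compounds were tested in 2.5% final DMSO.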

[1] = tested on: ovalbumin-sensitized guinea pigs (eosinophils in BAL); assay: Ovalbumin sensitization and challenge in guinea pigs, differential cell counts in bronchoalveolar lavage; format: in vivo, guinea pig; conditions: 5 mg/kg ip one hour prior to ovalbumin challenge; for % Eosinophils in BAL x ± se: BAL 24 hours after aerosol exposure; for % Inhibition: eosinophils in BAL versus vehicle
Procedure: (i) The effect of test compounds in a model of bronchial hyperresponsiveness (BHR) and cellular infiltration in the guinea pig induced by ovalbumin (see, for example Morley et al, Agents and Actions, Supplement, 1988, 23, 187) were studied.
(ii) Sensitization and Challenge procedure: Male Dunkin Hartley guine pigs (Charles River) (200-250 g) were injected i.p. with ovalbumin (OVA) (0.5 ml/animal; 20 μg OVA in AlOH)3 (moist gel)); this preparation produced an injectable stable suspension containing excess Al(OH)3. Sham animals were injected with 0.5 ml Al(OH)3 alone. After a period of 18-21 days animals were exposed to an aerosol of OVA (100 μg/ml) for 1 hour in an exposure chamber.
(iii) Bronchoalveloar lavage: Animals were anaesthetized, 24 hours after aerosol exposure, with urethane (25%, w/v, 7 ml/kg, i.p.) and the trachea cannulated. Bronchoalveo-lar lavage (BAL) was performed by instilling 5 ml sterile saline into the lungs via the tracheal cannula and the fluid was immediately removed. The fluid was reinjected and the procedure repeated 5 times in total. […] Total cell counts were perfomed on the resultant BAL fluid using an improved Neubauer haemocytometer. Cytospin preparations were prepared using a Shandon Cytospin 2 centrifuge. Two drops of BAL fluid were added to each cytospin cup and the samples were centrifuged for 1 min at 1300 r.p.m. Slides were fixed in acetone and stained with haemotoxylin and carbol chromotrope according to the method described by Lendrum (Lendrum 1944), differential cell counts were performed on each slide by counting 200 cells at random, the cell types were classified as neutrophils, eosinophils and mononuclear cells according to standard morphological criteria. Cells were counted blind. The results are expressed as the number of neutrophils, eosinophils and mononuclear cells per ml of BAL fluid. The remaining BAL fluid was centrifuged (10 min., 1000 g) and the resultant cells and cell free supernatants were aliquotted and frozen for later assays. Compounds were solu-bilized in either DMSO or saline administered intraperitoreally at a dose of 5 mg/kg one hour prior to ovalbumin challenge.

[2] = tested on: Guinea pig isolated trachealis muscle; assay: Isolated guinea pig trachea: relaxation of airways muscle; format: cell-based; conditions: compared with theophylline as standard (= 1); cumulative concentration effect curves
Procedure: The test compound was dissolved in dimethylsulfoxide. Guinea pig isolated trachealis muscle was mounted in a bath containing Krebs solution maintained at 37.5° C. and bubbled with carbogen (95% 02, 5% CO2).
Tension changes were recorded isometrically using force displacement transducers in conjunction with potentiometric pen recorders.
The ability of the test compounds to relax airways muscle was investigated by the construction of cumulative concentration effect curves. Each concentration of the test compound was allowed to equilibrate with the tissue for 5 minutes before a concentration increment (ten-fold) was made.
In each tissue the test compound was compared with theophylline as standard.

[3] = adenines, Table 7, read-out: calc PDE IV IC50
[4] = adenines, Table 4, cyclic AMP 0.2 μM, read-out: calc PDE IV IC50

Structure (SMILES): COc1ccc(Cn2c(=S)[nH]c(=S)c3[nH]c(C(C)C)nc32)cc1OC1CCCC1 [3-(3-cyclopentyloxy-4-methoxybenzyl)-3,7-dihydro-8-isopropyl-2,6-dithio-1H-purine-2,6-dione]
- IC50 (Type IV PDE; dithioxanthines, Table 5, read-out: IC50 PDE IV): 600 nM
- IC50 (Type IV PDE; read-out: PDE IV I50): 800 nM
- % Eosinophils in BAL x ± se [1]: 17 ± 3%
- % Inhibition [1]: 47%

Structure (SMILES): Cn1c(=O)c2[nH]cnc2n(C)c1=O [Theophylline, reference compound]
- In Vitro Activity [2]: 1

Structure (SMILES): CCNc1ncn(Cc2ccc(Cl)cc2)c2ncnc1-2.Cl [3-(4-chlorobenzyl)-6-ethylamino-3H-purine hydrochloride]
- IC50 (Type IV PDE; [4]): 37800 nM
- melting point: 251 to 254 °C

Structure (SMILES): CCNc1ncn(Cc2ccc(OC)c(OC3CCCC3)c2)c2nc(C(C)C)nc1-2.Cl [3-(3-Cyclopentyloxy-4-methoxybenzyl)-6-ethylamino-8-isopropyl-3H-purine Hydrochloride]
- IC50 (Type IV PDE; read-out: PDE IV I50): 320 nM
- % Eosinophils in BAL x ± se [1]: 12 ± 2%
- % Inhibition [1]: 64%

Structure (SMILES): CCCCCCn1cnc(NCC)c2ncnc1-2 [6-Ethylamino-3-hexyl-3H-purine]
- In Vitro Activity [2]: 25.6

Second part, led by results:

- IC50 (Type IV PDE; [3]): 27100 nM
Structure (SMILES): CCNc1ncn(CC)c2nc(C3CC3)nc1-2 [8-Cyclopropyl-3-ethyl-6-ethylamino-3H-purine]
- In Vitro Activity [2]: 43.7

- melting point: 187 to 188 °C
Structure (SMILES): CCNc1ncn(Cc2ccccc2)c2ncnc1-2 [3-Benzyl-6-ethylamino-3H-purine]
- In Vitro Activity [2]: 18.5

- IC50 (Type IV PDE; [3]): 34 nM
- melting point: 165 to 174 °C
Structure (SMILES): COc1ccc(Cn2cnc(N)c3nc(C(C)(C)OCc4ccc(F)cc4)nc2-3)cc1OC1CCCC1.Cl [6-Amino-3-(3-cyclopentyloxy-4-methoxy-benzyl)-8-(1-(4-fluorobenzyloxy)-1-methyl-ethyl)-3H-purine hydrochloride]

- IC50 (Type IV PDE; [3]): 850 nM
- melting point: 148 to 150 °C
Structure (SMILES): CCNc1ncn(Cc2ccc(OC)c(OC3CCCC3)c2)c2nc(C(C)(C)OCc3ccccc3)nc1-2.Cl [8-(1-Benzyloxy-1-methyl-ethyl)-3-(3-cyclopentyloxy-4-methoxy-benzyl)-6-ethylamino-3H-purine Hydrochloride]

- IC50 (Type IV PDE; [4]): 2450 nM
Structure (SMILES): CCNc1ncn(CCC(C)C)c2nc(C3CC3)nc1-2.Cl [8-cyclopropyl-6-ethylamino-3-(3-methylbutyl)-3H-purine hydrochloride]
- % Eosinophils in BAL x ± se [1]: 16 ± 4%
- % Inhibition [1]: 52%

- IC50 (Type IV PDE; read-out: PDE IV I50): 1130 nM
- melting point: 215 to 217 °C
Structure (SMILES): CCNc1ncn(Cc2ccc(Cl)cc2)c2nc(C(C)C)nc1-2 [3-(4-chlorobenzyl)-6-ethylamino-8-isopropyl-3H-purine]

Reference: patent US6413975B1, “Purine derivatives having phosphodiesterase iv inhibition activity” (Euro-Celtique, S.A., priority 1999, dated 2002)
